Laboratory results: patent US20070218189A1, “Reduction inhibitory agent for active oxygen eliminating-activity” (KABUSHIKI KAISHA HAYASHIBARA SEIBUTSU KAGAKU KENYUJO, priority 2001, published 2007)

Assays:
Type in all cases: biochemical
[1] = tested on: superoxide, formed in a hypoxanthine-xanthine oxidase system; experiment: Active oxygen eliminating activity of powdery carrot compositions with saccharides before and after storage, electron spin resonance (ESR) test (Experiment 4); settings: powdery carrot composition
Protocol: Fresh raw carrots were disrupted as Experiment 3, and saccharides were respectively added to the mixture and dissolved therein to give a concentration of 10%, d.s.b. The solutions were dried under a reduced pressure at 40° C. for one day, dried in vacuo at the same temperature for 17 hours, and pulverized by a mixer into powdery carrot compositions. […] About 100 g each of the compositions was placed and sealed in a 500-ml polystyrene container, and stored at 40° C. for seven or fourteen days. The active oxygen eliminating activities of the compositions before and after storage were compared with each other. The active oxygen eliminating activity was assayed by the electron spin resonance (ESR) test by Toshihiko OZAWA in BUNSEKI, Vol. 2, pp. 68-74 (2000), and the level of superoxide, formed in a hypoxanthine-xanthine oxidase system, was assayed by the spin-trapping with 5,5-dimethyl-1-pyrroline-N-oxide in ESR.

[2] = tested on: superoxide, formed in a xanthine-xanthine oxidase system; experiment: Active oxygen eliminating activity of powdery carrot compositions with saccharides before and after storage, nitro blue tetrazolium (NBT) test (Experiment 3); settings: for Activity (unit/g) After storage / Percentage of residual activity (%) / Activity (unit/g) Before storage: powdery carrot composition; for Activity (unit/g) After storage / Percentage of residual activity (%): saccharide added at 10% d.s.b., stored at 40° C. for seven days; for Activity (unit/g) Before storage: saccharide added to disrupted carrots at 10% d.s.b.; for residual percentage / reduction inhibitory activity for active oxygen eliminating activity among the saccharides tested: powdery carrot compositions, 40° C. seven days, in words
Protocol: Fresh raw carrots were disrupted by a mixer, and saccharides were respectively added to the mixture and dissolved therein to give a concentration of 10%, d.s.b. The solutions were dried under a reduced pressure at 40° C. for two days, dried in vacuo at the same temperature for 24 hours, and pulverized by a mixer into powdery carrot compositions. […] An about 100 g each of the compositions was placed and sealed in a 500-ml polystyrene container, and stored at 40° C. for seven days. The active oxygen eliminating activities of the compositions before and after storage were compared with each other. The active oxygen eliminating activity was assayed by the nitro blue tetrazolium (NBT) test by Toshio IMANARI et al. in Igakuno Ayumi, Vol. 101, pp. 496-497 (1977), and the level of superoxide, formed in a xanthine-xanthine oxidase system, was assayed by quantifying calorimetrically the content of formazan formed by reducing NBT. As a control, refined water was used as a test solution. One unit activity of active oxygen eliminating activity was defined as that inhibited 50% formazan formation as compared with the control. […] Thus cyclotetrasaccharide is preferable as an effective ingredient for a reduction inhibitory agent for active oxygen eliminating activity.

active oxygen = experiment: Active oxygen eliminating activity of superoxide dismutase and antioxidants in cyclotetrasaccharide solution or water before and after storage (Experiment 7); settings: for Activity (unit/mg antioxidant) After one storage / Residual activity (%): dark; for Activity (unit/mg antioxidant) Before storage: superoxide dismutase 5 μg/ml, α-glucosyl hesperidin and α-glucosyl rutin 10 mg/ml, catechin 50 μg/ml
Protocol: In one milliliter of 30% (w/v) cyclotetrasaccharide solution, which is prepared by using cyclotetrasaccharide obtained in Experiment 2, was dissolved five micrograms (μ g) of superoxide dismutase from a horseradish commercialized by Sigma Chemical Co., St. Louis, USA, 10 mg of α-glucosyl hesperidin commercialized by Hayashibara Biochemical Laboratories, Inc., Okayama Japan, 10 mg of α-glucosyl rutin commercialized by Hayashibara Biochemical Laboratories, Inc., Okayama, Japan, 250 μg of gallic acid commercialized by Wako Pure Chemical Industries, Ltd., Tokyo, Japan, or 50 μg of catechin to obtain a liquid composition. Each of the compositions was placed in a glass test tube, sealed with a rubber cap, and stored under a dark condition. As a control, water was used in place of the cyclotetrasaccharide solution.

[3] = cyclotetrasaccharide 0% (water), 80° C. 5 days, α-glucosyl hesperidin, α-glucosyl rutin 10 mg/ml, gallic acid 250 μg/ml
[4] = cyclotetrasaccharide 30%, 80° C. 5 days, α-glucosyl hesperidin, α-glucosyl rutin 10 mg/ml, gallic acid 250 μg/ml
[5] = cyclotetrasaccharide concentration 0% (water), gallic acid 250 μg/ml
[6] = cyclotetrasaccharide concentration 30%, gallic acid 250 μg/ml
[7] = cyclotetrasaccharide 0% (water), 60° C. 17 hours, 5 μg/ml
[8] = cyclotetrasaccharide 30%, 60° C. 17 hours, 5 μg/ml
[9] = cyclotetrasaccharide 0% (water), 25° C. 20 hours, 50 μg/ml
[10] = cyclotetrasaccharide 30%, 25° C. 20 hours, 50 μg/ml

Row | Activity (unit/g) After storage [2] [unit/g] | Percentage of residual activity (%) [2] [%] | Activity (unit/g) Before storage [2] [unit/g] | Molecule | Activity (unit/mg antioxidant) Before storage (active oxygen; [5]) | Activity (unit/mg antioxidant) Before storage (active oxygen; [6]) | other results
1 | 26 | 5 | 560 | OC[C@@H](O)[C@@H](O)[C@H](O)[C@@H](O)CO [Sorbitol, sorbitol] |  |  | 
2 | 180 | 27 | 660 | OC[C@H]1O[C@@](CO)(O[C@H]2O[C@H](CO)[C@@H](O)[C@H](O)[C@H]2O)[C@@H](O)[C@@H]1O [Sucrose, sucrose] |  |  | 
3 | 380 | 66 | 580 | OC[C@H]1O[C@H](O[C@H]2O[C@H](CO)[C@@H](O)[C@H](O)[C@H]2O)[C@H](O)[C@@H](O)[C@@H]1O [Trehalose, trehalose] |  |  | residual percentage / reduction inhibitory activity for active oxygen eliminating activity among the saccharides tested [2]: highest residual percentage
4 | 360 | 51 | 710 | pullulan |  |  | residual percentage / reduction inhibitory activity for active oxygen eliminating activity among the saccharides tested [2]: relatively-high reduction inhibitory activity

Further lines, the molecule ahead of its results:

Row | Molecule | Activity (unit/g) After storage [2] [unit/g] | Percentage of residual activity (%) [2] [%] | Activity (unit/g) Before storage [2] [unit/g] | Activity (unit/mg antioxidant) Before storage (active oxygen; [5]) | Activity (unit/mg antioxidant) Before storage (active oxygen; [6]) | other results
5 | OC[C@H]1O[C@H](O[C@H]2[C@H](O)[C@@H](O)C(O)O[C@@H]2CO)[C@H](O)[C@@H](O)[C@@H]1O (mixture of isomers) [Maltose, maltose] | 180 | 33 | 550 |  |  | Activity (unit/g) Before storage ([1]; saccharide added at 10% d.s.b., before storage): 236 unit/g; Activity (unit/g) After two weeks storage ([1]; stored at 40° C. for fourteen days): 53 unit/g; percentage of residual activity After two weeks storage ([1]; stored at 40° C. for fourteen days, numerals in parentheses): 22%; Activity (unit/g) After one week storage ([1]; stored at 40° C. for seven days): 56 unit/g; percentage of residual activity After one week storage ([1]; stored at 40° C. for seven days, numerals in parentheses): 24%
6 | O=C(O)c1cc(O)c(O)c(O)c1 [Gallic acid, gallic acid] |  |  |  | 590 unit/mg antioxidant | 600 unit/mg antioxidant | Activity (unit/mg antioxidant) After one storage (active oxygen; [3]): 390 unit/mg antioxidant; Residual activity (%) (active oxygen; [3]): 66%; Activity (unit/mg antioxidant) After one storage (active oxygen; [4]): 450 unit/mg antioxidant; Residual activity (%) (active oxygen; [4]): 75%
7 | OC[C@@H](O)[C@@H](O)[C@H](O)[C@H](O)CO [Mannitol, mannitol] | 59 | 11 | 520 |  |  | 
8 | OCC1OC2OCC3O[C@H](O[C@H]4C(O)C(CO)OC(OCC5O[C@H](O[C@@H](C1O)C2O)C(O)C(O)[C@@H]5O)C4O)C(O)C(O)[C@@H]3O (some centres unmarked) [crystalline cyclotetrasaccharide hydrate] |  |  |  |  |  | change of the active oxygen eliminating activity on storage of a powder mixture (active oxygen; powdery crystalline cyclotetrasaccharide hydrate mixed dry with either of the powdery antioxidants, storage test as in Table 5): almost no change of the active oxygen eliminating activity
9 | Superoxide dismutase |  |  |  | 10,000 unit/mg antioxidant | 12,000 unit/mg antioxidant | Activity (unit/mg antioxidant) After one storage (active oxygen; [7]): 4,600 unit/mg antioxidant; Residual activity (%) (active oxygen; [7]): 46%; Activity (unit/mg antioxidant) After one storage (active oxygen; [8]): 7,300 unit/mg antioxidant; Residual activity (%) (active oxygen; [8]): 61%
10 | catechin |  |  |  | 470 unit/mg antioxidant | 450 unit/mg antioxidant | Activity (unit/mg antioxidant) After one storage (active oxygen; [9]): 2.2 unit/mg antioxidant; Residual activity (%) (active oxygen; [9]): 0%; Activity (unit/mg antioxidant) After one storage (active oxygen; [10]): 240 unit/mg antioxidant; Residual activity (%) (active oxygen; [10]): 53%
11 | α-glucosyl hesperidin |  |  |  | 3.8 unit/mg antioxidant | 4.0 unit/mg antioxidant | Activity (unit/mg antioxidant) After one storage (active oxygen; [3]): 1.0 unit/mg antioxidant; Residual activity (%) (active oxygen; [3]): 26%; Activity (unit/mg antioxidant) After one storage (active oxygen; [4]): 2.1 unit/mg antioxidant; Residual activity (%) (active oxygen; [4]): 53%
12 | α-glucosyl rutin |  |  |  | 25 unit/mg antioxidant | 26 unit/mg antioxidant | Activity (unit/mg antioxidant) After one storage (active oxygen; [3]): 18 unit/mg antioxidant; Residual activity (%) (active oxygen; [3]): 72%; Activity (unit/mg antioxidant) After one storage (active oxygen; [4]): 22 unit/mg antioxidant; Residual activity (%) (active oxygen; [4]): 85%
